In publication PMC12631437, “Evaluation of the Activity of 4‑Quinolones against Multi-Life Stages of Plasmodium spp” (ACS Omega, 2025):
Converted amounts (≈) assume the structure as drawn. Like-named read-outs stand apart in the source and are kept apart here.

What was measured:
[1] = tested on: Plasmodium falciparum 3D7 sensitive strain; experiment: SYBR Green growth assay, asexual blood stages, 3D7 sensitive strain; assay type: cell-based
Protocol: (§1) Parasite strains SB1-A6, 7G8, V1/S, and HB3 were acquired from BEI-MR4, while the ATQ R1 strain, carrying a V259L gene mutation, was generated in-house. […] Parasitemia was monitored using Giemsa-stained blood smears.
(§2) Bioassays were conducted with synchronized ring-stage parasites using sorbitol synchronization. Antimalarial compounds were evaluated in 96-well plates, and parasite growth was assessed using a SYBR Green-based fluorescence assay The assays were conducted when the parasite quantity reached at least 70% of the ring stage. Compounds were initially added at specific concentrations in the first wells, followed by serial dilution (1:2) ranging from 20 μM to 0.009 μM. Subsequently, a solution containing parasites in RPMI medium at a hematocrit of 2% was added to each well, and the parasites were then incubated for 72 h.
(§3) The IC50 values were determined using concentration–response curves generated in GraphPad 8 software. Additionally, the resistance index was calculated by comparing IC50 values obtained for the sensitive 3D7 strain with those of the resistant strains.

[2] = tested on: late-stage gametocytes (IV and V) of P. falciparum NF54; experiment: Late-stage gametocyte bioluminescence assay, luciferase-expressing NF54; assay type: cell-based, Plasmodium falciparum; conditions: for Pf gametocytes inhibition: 1 μM
Protocol: For the in vitro culture of sexual stages of P. falciparum NF54 Luminescent strain, the Tripathi protocol was followed.
Parasite asexual stages were synchronized, and ring-stage parasites were incubated with a parasite-conditioned medium to induce stress and trigger gametocyte induction. After sexually committed parasites invaded new erythrocytes, N-acetylglucosamine was added to prevent further invasion and clear residual asexual parasites.
When a predominance of late stage (IV and V) gametocytes was identified and counted together, , the MACS magnetic system was used for gametocyte enrichment, as previously described. ,
The column content was eluted with RPMI medium into a 15 mL Falcon tube until translucent medium appeared, yielding ∼ 10 mL of eluate. The sample was centrifuged at 1500 rpm for 5 min at 37 °C, the supernatant discarded, and the pellet washed with preheated RPMI medium containing albumax. A 1 μL pellet sample was used to prepare a Giemsa-stained smear for gametocytaemia determination by counting 2000 cells. The gametocytemia for each assay were 71%, 64% and 31%. The remaining pellet was adjusted to 1 mL with RPMI medium containing 10% human serum at 37 °C. Total cell counts were performed using a Neubauer chamber with a 10X diluted sample.
Each well contained 200,000 gametocytes in 150 μL without erythrocytes. After 48 h of incubation, a luciferase kit (Promega) was used to reveal the assay. Eighty microliters of supernatant were discarded, and the pellet was homogenized in the remaining content. Forty microliters of the sample were transferred to a clear 96-well plate containing lysis solution (1X), gently mixed, and moved to a white-bottomed 96-well plate. Luciferase (40 μL) was added, and luminescence was measured using a microplate reader with a 10-s integration time.

[3] = tested on: P. berghei hepatic stages; experiment: Hepatic stage bioluminescence assay, Huh-7 cells infected with luciferase-expressing sporozoites; assay type: cell-based, Plasmodium berghei; conditions: read-out: IC50 (μM) Pb liver stages
Protocol: (§4) Huh-7 cells were cultured in RPMI 1640 medium (Sigma) supplemented with 10% v/v fetal bovine serum (FBS), 1% v/v penicillin/streptomycin, 1% v/v glutamine, 1% v/v nonessential amino acids, and 10 mM HEPES, pH 7. For compound dilution, a medium containing 1:1000 gentamicin (G) and 1:300 fungizone (F) was used. Cells were seeded at 1 × 10^4 cells/well in 96-well plates and incubated at 37 °C with 5% CO2. After 24 h, compounds were diluted in RPMI+F+G, and after removal of the culture medium, added to the cells in triplicate. DMSO and atovaquone were used as negative and positive controls, respectively. Following incubation for 1 h at 37 °C, 5% CO2, the cells were infected with luciferase-expressing P. berghei sporozoites (4,000 parasites per well) freshly extracted from the salivary glands of infected mosquitoes reared at the GIMM insectarium. The viability of Huh-7 cells exposed to the compounds was assessed 46 h later by the AlamarBlue assay (Invitrogen, UK) measurement, and parasite burden was measured 48 h after sporozoite addition using a bioluminescence assay (Biotium). IC50 values were calculated using GraphPad Prism through nonlinear regression analysis of normalized dose–response curves.

P. falciparum HB3 strain = experiment: SYBR Green growth assay, asexual blood stages, HB3 strain; assay type: cell-based, Plasmodium falciparum; conditions: Plasmodium falciparum
Protocol: as §1, §2, §3

[4] = tested on: P. falciparum V1/S strain; experiment: microbe, parasite or virus in culture; assay type: cell-based, Plasmodium falciparum; conditions: Plasmodium falciparum, 72 h
Protocol: (§5) Healthy blood samples for parasite culture were obtained from voluntary donors (approved under protocol #28176720.9.0000.0011), processed to remove white blood cells, and stored at 2 °C–8 °C for up to 15 days. Parasite strains SB1-A6, 7G8, V1/S, and HB3 were acquired from BEI-MR4, while the ATQ R1 strain, carrying a V259L gene mutation, was generated in-house. Infected erythrocytes were cultured in RPMI 1640 medium supplemented with Hepes, sodium bicarbonate, glucose, Albumax, and gentamicin, […], and incubated in a 5% CO2, 5% O2, and 90% N2 gas mixture at 37 °C with daily medium changes. Parasitemia was monitored using Giemsa-stained blood smears.
as §2
(§6) To assess parasite growth, the culture medium was replaced with a lysis solution (Trisbase: 49.31%, EDTA: 30.00%, Saponin: 0.16%, Triton: 0.02%) containing the fluorescent dye SYBR Green (Sigma). After a 30 min incubation, fluorescence readings were taken to determine the 50% inhibitory concentration (IC50) of parasite growth. The IC50 values were determined using concentration–response curves generated in GraphPad 8 software. Additionally, the resistance index was calculated by comparing IC50 values obtained for the sensitive 3D7 strain with those of the resistant strains.

P. falciparum 7G8 strain = experiment: SYBR Green growth assay, asexual blood stages, 7G8 strain; assay type: cell-based, Plasmodium falciparum; conditions: Plasmodium falciparum
Protocol: as §5, §2, §6

[5] = tested on: P. falciparum DHODH strain; experiment: SYBR Green growth assay, asexual blood stages, DHODH resistant mutant; assay type: cell-based, Plasmodium falciparum; conditions: Plasmodium falciparum, 72 h
Protocol: as §5, §2, §6

[6] = tested on: P. falciparum hepatic stages; conditions: cited from earlier work
[7] = tested on: P. berghei exflagellation centers; experiment: Ex vivo exflagellation assay, blood of P. berghei infected mice; assay type: cell-based, Plasmodium berghei; conditions: 5 μM, 15 min incubation
Protocol: For the ex vivo assays, a female CD1 mouse between 4 and 5 weeks of age (n = 3) was infected with P. berghei. After 4 days, when the presence of parasites (sexual phases) in the blood was observed by Giemsa-stained blood smear microscopy, the total blood from the mouse was collected into a preheated tube at 37 °C containing RPMI medium supplemented with 20% Fetal Bovine Serum (FBS) and 200 units/mL of heparin as an anticoagulant. The tube was maintained at 37 °C and centrifuged at 1500 rpm for 5 min. The supernatant was discarded, and the blood was resuspended in 20 mL of RPMI medium supplemented with 20% FBS.
One milliliter of resuspended blood was added to each well of a 6-well plate containing 5 μM methylene blue (positive control), test compound 1 at 10 μM and 1 μM, and DMSO (negative control). After 15 min, the wells were homogenized, and 10 μL of the content was collected into an Eppendorf tube and incubated at room temperature for another 15 min. The sample was then transferred to a Neubauer chamber, and exflagellation centers were counted using an optical microscope at 40× magnification.

[8] = tested on: P. berghei sexual phases in An. stephensi; experiment: In vivo transmission-blocking assay, P. berghei infected CD1 mice, An. stephensi; design: species or system Plasmodium berghei; conditions: positive control, 25 mg/kg x 2/12h
Protocol: For this assay, a colony of An. stephensi was used. The lab-reared An. stephensi was kept under controlled conditions, with a temperature of 26 °C ± 1 °C, a 12/12 h light/dark cycle, a relative humidity of 70% ± 10%, and fed a 30% sugar solution as needed.
Female CD1 mice (4 to 6 weeks old) were infected by intraperitoneal inoculation (i.p.) containing 10 million erythrocytes infected with P. berghei expressing the GFP fluorescent protein. After 4 days, when parasites in the sexual stages were detected via Giemsa-stained blood smears, mice with similar gametocytemia and parasitemia were randomly divided into three groups of two animals each. The groups of two mices were treated orally with compound 1 at two doses of 50 mg/kg, spaced 12 h apart. […] Following the second dose, mice were anesthetized and placed in individual cages containing approximately 50 female A. stephensi mosquitoes, which had been starved for 24 h before the assay. Blood feeding lasted for 30 min, after which unfed mosquitoes were removed. Engorged females were maintained in an insectary at 21 ± 1 °C and 60% relative humidity, receiving a 30% glucose solution.
A group of 10 mosquitoes was set aside to assess sporozoite development in salivary glands, following a protocol similar to the one described previously, with dissections performed 21 days postblood meal. Additionally, 10 μL of mouse blood was collected immediately after treatment with the compounds and incubated at room temperature for 15 min. Exflagellation was observed under optical microscopy to evaluate the effect of 4-quinolone-derived molecules on microgametocyte activity.

Huh-7 cells = experiment: Alamar Blue cell confluency (cytotoxicity) in Huh-7 cells; assay type: cell-based
Protocol: as §4, with “For” for “Huh-7 cells were cultured in RPMI 1640 medium (Sigma) supplemented with 10% v/v fetal bovine serum (FBS), 1% v/v penicillin/streptomycin, 1% v/v glutamine, 1% v/v nonessential amino acids, and 10 mM HEPES, pH 7. For”, “DMSO and atovaquone were used as negative and positive controls, respectively.” left out
On the first day of the assay, the compounds were diluted at 10 and 1 μM in cRPMI medium supplemented with fungizone. and gentamicin. The culture medium of Huh-7 cells was removed and replaced with compound dilutions in triplicate. As a control, a DMSO dilution mimicking the highest compound concentration used was included. The cells were incubated for 1 h at 37 °C in a 5% CO2 atmosphere.
On the second day of the assay, compound toxicity was assessed by measuring cell confluency using the Alamar Blue/CellTiter Blue reagent. First, reagent aliquots stored at −20 °C were thawed and diluted at a 1:20 ratio in cRPMI. The culture medium was removed and replaced with 80 μL of the solution per well, followed by incubation at 37 °C and 5% CO2 for 1 h and 30 min. Fluorescence was measured using a plate reader with the Tecan i-Control software.

[9] = tested on: P. falciparum ATQ_R1 strain; experiment: SYBR Green growth assay, asexual blood stages, ATQ_R1 strain; assay type: cell-based, Plasmodium falciparum; conditions: Plasmodium falciparum, 72 h
Protocol: as §5, §2, §6

[10] = tested on: P. falciparum oocyst development; design: method as in PMID 12878530, PMID 17361016; conditions: studies primarily focused on P. falciparum; ref 27;28; cited from earlier work
[11] = Plasmodium falciparum, 3D7, 72 h
[12] = Plasmodium falciparum, 3D7, 72 h, asexual blood stages, 3D7 sensitive strain, 72 h, read-out: IC50

2-(4-Chlorophenyl)-6-morpholinoquinolin-4(1H)-one [compound 3]
IC50 ([1]; asexual blood stages, 3D7 sensitive strain, 72 h, read-out: IC50): 2.9 µM | Pf gametocytes inhibition [2]: no activity | IC50 ([3]; Huh-7 cells, 48 h after sporozoite addition): 0.64 ± 0.04 µM

CCN(CC)CCCC(C)Nc1ccnc2cc(Cl)ccc12 (centres unmarked) [Chloroquine, reference compound]
IC50 [1, 11]: 0.006 ± 0.001 µM | IC50 (P. falciparum HB3 strain; HB3, 72 h): 0.006 ± 0.002 µM | IC50 [4]: 0.17 ± 0.09 µM | IC50 (P. falciparum 7G8 strain; 7G8, 72 h): 0.22 ± 0.08 µM

Cc1cc(Nc2ccc(S(F)(F)(F)(F)F)cc2)n2nc(C(C)(F)F)nc2n1 [DSM 265, reference compound]
IC50 [5]: > 10 µM

Cc1c(F)c(N2CCNC(C)C2)cc2c1c(=O)c(C(=O)O)cn2C1CC1 (centres unmarked) [Grepafloxacin]
IC50 P. falciparum hepatic stages [6]: 5.0 ± 0.2 µg/mL (≈ 13.9 µM)

CN(C)c1ccc2nc3ccc(=[N+](C)C)cc-3sc2c1 [MB, Methylene blue, reference compound]
inhibition at 5 µM ([2]; Plasmodium falciparum, NF54, 48 h, control at 5 μM, 48 h, read-out: Pf gametocytes Inhibition (%)): 100% | inhibition of exflagellation centers (ex vivo) [7]: completely inhibited | inhibition at 5 µM ([7]; Plasmodium berghei, 0.25 h): 100%

COc1cc(NC(C)CCCN)c2ncccc2c1 (centres unmarked) [Primaquine, reference compound]
inhibition of P. berghei oocysts (in vivo) [8]: 100% | Confluency % (Huh-7 cells; 1 μM): 109 ± 10% | Confluency % (Huh-7 cells; 10 μM): 104.0 ± 0.2%

CCc1nc(N)nc(N)c1-c1ccc(Cl)cc1 [Pyrimethamine, reference compound]
IC50 [1, 12]: 0.05 ± 0.008 µM | IC50 (P. falciparum HB3 strain; HB3 strain, 72 h, read-out: IC50): 5.2 ± 0.4 µM | IC50 [4]: 6 ± 2.4 µM | IC50 (P. falciparum 7G8 strain; 7G8 strain, 72 h, read-out: IC50): 6 ± 1 µM | IC50 [9]: > 10 µM

Cc1ccc(-c2cc(O)c3ccccc3n2)cc1 [compound 2, 2-p-Tolylquinolin-4(1H)-one]
IC50 [1, 12]: 11 µM | IC50 ([3]; Plasmodium berghei, Huh-7 cells, 48 h after sporozoite addition): 1.3 ± 0.2 µM | Confluency % (Huh-7 cells; 1 μM): 163 ± 14% | Confluency % (Huh-7 cells; 10 μM): 104 ± 4%

O=c1cc(-c2ccc(N3CCOCC3)cc2)[nH]c2ccccc12 [compound 4, 2-(4-Morfolinofenil)-quinolin-4(1H)-one]
IC50 [1, 12]: > 10 µM | Pf gametocytes inhibition [2]: no activity

CCCCCCCc1cc(O)c2ccccc2n1 [compound 5, 2-Heptylquinolin-4(1H)-one]
IC50 [1, 11]: 1 ± 0.2 µM | Pf gametocytes inhibition [2]: no activity | inhibition at 20 µM ([2]; Plasmodium falciparum, NF54, 48 h, read-out: Pf gametocytes Inhibition (%)): 25 ± 4% | IC50 ([3]; Plasmodium berghei, Huh-7, 48 h): 0.3 ± 0.01 µM | Confluency % (Huh-7 cells; 1 μM): 100 ± 1% | Confluency % (Huh-7 cells; 10 μM): 147 ± 3%

CCCCN(CCCC)CCC(O)c1cc2c(Cl)cc(Cl)cc2c2cc(C(F)(F)F)ccc12 (centres unmarked) [halofantrine]
concentration required to inhibit oocyst development [10]: around 10 μM

CCCCN(CCCC)CC(O)c1cc(Cl)cc2c1-c1ccc(Cl)cc1/C2=C/c1ccc(Cl)cc1 (centres unmarked) [lumefantrine]
concentration required to inhibit oocyst development [10]: around 10 μM

OC(c1cc(C(F)(F)F)nc2c(C(F)(F)F)cccc12)C1CCCCN1 (centres unmarked) [mefloquine]
concentration required to inhibit oocyst development [10]: around 10 μM
